Columns and labels:
LM8 osteosarcoma = assay: Antitumor efficacy in LM8-bearing osteosarcoma model; assay type: in vivo; conditions: LM8-bearing C3H/HeJ mice, tail vein, DOX equivalent 10 mg/kg every other day, 7 doses, n = 5
Method: To investigate the in vivo antitumor effects, male C3H/HeJ mice (8–10 weeks old) were purchased from GemPharmatech (Nanjing, China). All animal experiments were conducted with the relevant institutional guidelines of Jiangsu University, and were approved by the Institutional Animal Care And Use Committees of Jiangsu University (UJS-IACUC-2024080202).
[…] LM8-bearing OS model was established by injected subcutaneously 1 × 10^7 LM8 cells into the backs of mice. Tumor growth was allowed to proceed for approximately 7 days prior to treatment until the tumors reached a measurable size. Tumor size was monitored using a caliper, with tumor volume calculated according to the formula: (length × width^2)/2.
(§1) Each group received the corresponding treatment via tail vein injection, with a DOX equivalent dose of 10 mg/kg administered every other day for a total of 7 doses. Tumor volume and mouse body weight were recorded every other day during the treatment. On day 14, the mice were euthanized under anesthesia, and the tumors were excised and weighed for further analysis. The tumor was further stained with hematoxylin and eosin (H&E) after mice sacrificed.

[1] = Body weight during treatment (systemic toxicity); assay type: in vivo, C3H/HeJ mice; conditions: LM8-bearing mice; tail vein, DOX equivalent 10 mg/kg every other day, 7 doses
Method: as §1

LM8 cells [2] = assay: Extracellular ATP release, bioluminescence kit; assay type: cell-based, murine; conditions: LM8 culture supernatant, 10 μM DOX or equivalent, 24 h, mean ± SEM by Figure 3 legend
Method: (§2) The immunogenic cell death (ICD) biomarkers, including calreticulin (CRT), high-mobility group box 1 (HMGB1), and adenosine triphosphate (ATP), were analyzed. LM-8 cells were seeded in 24-well plates at a density of 1 × 10^5 cells per well, and the cells were allowed to grow to an appropriate confluence.
On the other hand, additional sets of cells received identical treatments were employed to determine the released HMGB1 and ATP. Briefly, culture supernatant was collected and centrifuged to remove cell debris. Subsequently, the extracellular HMGB1 was quantified using an enzyme-linked immunosorbent assay (ELISA) kits (R&D systems, China), whereas the supernatant ATP was quantified using a bioluminescence kit (No. S0026, Beyotime, China) and measured by a multifunction microplate reader.

[3] = tested on: LM8 murine osteosarcoma cells; assay: CCK-8 cell viability; assay type: cell-based; conditions: 48 h, pH not stated, mean ± SD, n = 3
Method: The LM8 murine osteosarcoma cell line, derived from C3H/He mice, was purchased from HyCyte™ (Suzhou, China). LM8 cells were maintained in Dulbecco’s modified Eagle’s medium (DMEM, Gibco, NY, United States) supplemented with 10% fetal bovine serum (FBS, Gibco). Cells were cultured at 37°C in an incubator under 5% CO2.
LM-8 cells were seeded at a density of 1 × 10^6 cells/mL in a 96-well plate. After 24 h incubation, the culture medium was replaced with 100 μL of medium containing serial dilutions of different treatment samples. After 48 h incubation, 10 μL of the CCK-8 reagent (Dojindo, Kyushu, Japan) was added into each well and incubated for further 2 h at 37°C. The absorbance of each sample was measured at 450 nm using a multifunction microplate reader (Biotek, VT, United States).

LM8 cells [4] = assay: Calreticulin (CRT) surface exposure, flow cytometry; assay type: cell-based, murine; conditions: 10 μM DOX or equivalent, 24 h, mean ± SEM by Figure 3 legend
Method: as §2
After treatment, the cells were digested, collected, and washed twice with cold PBS. To determine the surface expression of CRT, the cells were blocked with CD16/32 antibody for 10 min, incubated with Alexa 488-anti-CRT antibody (EPR3924, 1:500 v/v, Abcam) for 15 min at 4°C, washed once with PBS, resuspended with PBS, and detected by flow cytometry.

[5] = cumulative doses exceeding 550 mg/m^2; ref Alberts and Garcia, 1997; Treat et al., 1990; cited from earlier work
Excerpt: A major challenge in OS treatment lies in the toxicity associated with conventional chemotherapeutic agents. […] Although reducing DOX dosage can alleviate the cardiotoxicity, this reduction risks compromising the therapeutic efficacy, particularly its ability to induce immunogenic cell ...

[6] = tested on: immune cell populations in the tumor, and tumor-draining lymph nodes; assay: Flow cytometric immune cell profiling of tumor and tumor-draining lymph nodes; assay type: in vivo, C3H/HeJ mice; conditions: post-treatment, flow cytometry
Excerpt: Flow cytometry was applied to characterize the change in immune cell populations in the tumor, and tumor-draining lymph nodes (TDLNs). Excised tumors were harvested, homogenized and consecutively strained through 70-μm filters to obtain single cell suspensions, while the lymph nodes were manually dissociated through a 40-μm filter to obtain a single cell suspension. Cells were stained with fluorescent antibodies to identify immune cell pollutions.
Single-cell suspensions of TDLNs were stained with CD11c (clone N418; Biolegend), CD80 (clone 16-10A1; Biolegend), CD86 (clone GL1; Biolegend) for the analysis of mature DCs.
Single-cell suspensions of tumor tissues were stained with CD3 (clone 145-2C11; BD), CD4 (clone RM4-5; BD), CD8 (clone 53–6.7; Biolegend), CD62L (clone MEL-14; Biolegend), or CD44 (clone 1M7; Biolegend) antibodies for flow cytometry analysis. For intracellular cytokine and marker staining, after extracellular staining, cells were fixed and permeabilized with BD Cytofix/Cytoperm kit (BD Biosciences) and incubated with fluorescently conjugated antibodies against IFNγ (clone XMG1.2; Biolegend) or granzyme B (clone GB11; Biolegend) antibodies. […] Samples were run on a Beckman Coulter Gallios™ flow cytometer and analyzed using FlowJo software.

[7] = Stability (retention) of the PD-1/PD-L1 peptide in PBS and FBS-containing PBS, HPLC; assay type: in vitro ADME; conditions: 48 h; for peptide content remaining: peptide conjugated in co-loaded nanoparticles, FBS-containing PBS (50% FBS), mean ± SD, n = 3, SD
Excerpt: […] Peptide content was quantified using high-performance liquid chromatography (HPLC). This analysis aimed to determine peptide degradation in PBS and FBS-containing media, considering the potential influence of protease activity present in serum.

| Compound | tumor growth (tumor volume) (LM8 osteosarcoma; 14 days) | tumor mass at end of study (LM8 osteosarcoma; day 14) | body weight change [1] | extracellular ATP level (LM8 cells [2]) [nM] | IC50 [3] [µM] | CRT exposure (% of cells) (LM8 cells [4]) | long-term survivors affected by cardiotoxicity [5] | infiltrated CTLs (CD3+CD8+) in tumor tissue [6] | peptide remaining intact ([7]; peptide conjugated as DSPE-PEG-peptide in co-loaded nanoparticles, PBS, 37°C, n = 3) | peptide content remaining ([7]; 25°C) | peptide content remaining ([7]; 37°C) |
| --- | --- | --- | --- | --- | --- | --- | --- | --- | --- | --- | --- |
| COc1cccc2c1C(=O)c1c(O)c3c(c(O)c1C2=O)C[C@@](O)(C(=O)CO)C[C@@H]3O[C@H]1C[C@H](N)[C@H](O)[C@H](C)O1.Cl [free DOX, Doxorubicin hydrochloride] | moderate reduction in tumor growth | moderate reductions in tumor mass | significant weight loss | 266.05 ± 42.73 | 13.3 ± 1.24 | 73.04% ± 6.35% | approximately 30% | moderate CTLs infiltration | – | – | – |
| CGGGGSHFSASYDKYAEKF [PD-1/PD-L1 targeting peptide] | – | – | – | – | – | – | – | – | over 90% | 78.57% ± 0.81% | 72.32% ± 1.26% |

Source: publication PMC12011790, “Synergistic chemo-immunotherapy for osteosarcoma via a pH-responsive multi-component nanoparticle system” (Frontiers in Pharmacology, 2025)
